Legend:
[1] = test system: PADGEM-mediated binding of HL60 cells to CHO-PADGEM transfectants; assay: CHO-PADGEM adhesion assay with tritiated HL60 cells; assay type: cell-based; settings: done once only
Excerpt: (§1) Chinese hamster ovary cells (CHO-DUKX) were transfected with cDNA encoding ELAM or PADGEM to make CHO-ELAM and CHO-PADGEM cells. Each of the following cell types, Chinese hamster ovary cells-DUKX (CHO-DUKX), Chinese hamster ovary cells transfected with cDNA for ELAM (CHO-ELAM) and Chinese hamster ovary cells transfected with cDNA for PADGEM (CHO-PADGEM), were separately plated at a density of 6×10^4 cells per milliliter of medium into Costar 48 well culture plates. On the following day, HL60 cells in culture were sedimented by centrifugation and resuspended in medium (RPMI, 10% fetal calf serum) to a density of 5×10^5 cells/ml. Tritiated thymidine (5 μCi per milliliter) was added to the HL60 cell suspension and the cells were grown overnight. The following day the HL60 cells were washed thrice in serum free RPMI and resuspended in a volume of 5 mls of RPMI. After assuring that the free tritium in the cell suspension is no more than 10% of the cell associated tritium, the cell count of the cell suspension was established and the cell density was adjusted to 1×10^6 cells per milliliter.
(§2) To perform the assay medium was aspirated from the CHO cells, CHO-ELAM cells and CHO-PADGEM cells. The wells containing these cells were rinsed with 1 ml of serum free RPMI. HL60 cells were preincubated for 10 minutes with the test sugar at the concentrations indicated. Aliquots of these HL60 cells (100,000 to 300,000 cells) were then added to individual wells containing CHO cells of the various types and the two cell populations incubated together for 30 minutes at room temperature. Unbound HL60 cells were removed by aspiration and the wells were washed thrice with serum free RPMI. The adherent CHO cells and any bound HL60 cells were detached from the surface of the wells with 250 μl of phosphate buffered saline containing 1 mM EDTA. An aliquot of the detached cells (200 μl) was analyzed for tritium content in a β-scintillation counter. The level of nonspecific binding of tritiated HL60 cells was taken as the level of binding seen in the wells containing the CHO-DUKX cells (parent cell line of CHO-PADGEM and CHO-ELAM transfectants). This value was subtracted from the level of tritiated HL60 cells bound in wells containing CHO-ELAM or CHO-PADGEM cells. The decrease in binding induced by the presence of the sugar was determined by comparing the level of binding of HL60 cells in the presence of the sugar to that observed in its absence.
(§3) Additional sugars were tested for inhibition of PADGEM- and ELAM-mediated interactions using the CHO-PADGEM and CHO-ELAM adhesion assay described in Example 2. The following sugars were tested at a single concentration: […]

[2] = test system: ELAM-mediated binding of HL60 cells to CHO-ELAM cells; assay: CHO-ELAM adhesion assay with tritiated HL60 cells; assay type: cell-based; settings: Homo sapiens, HL-60, done once only, read-out: decrease of ELAM-mediated binding; for inhibition at 250 µM: 0.25 mM; for inhibition at 500 µM: 0.5 mM
Excerpt: as §1, §2, §3

[3] = test system: adherence of activated platelets to neutrophils (PADGEM-mediated); assay: Phase-contrast cell adhesion assay: thrombin-activated platelets with neutrophils; assay type: cell-based, human; settings: LNF isomers; direct cell adhesion assay; FIG. 6
Method: Platelets were isolated by gel filtration from fresh anticoagulated blood obtained from normal human donors (Hsu-Lin et al., J. Biol. Chem., 259: 9121-9126 (1984)). Activated platelets were prepared by incubating cells without stirring for 20 minutes at 22° C. with thrombin at a final concentration of 0.25 U/ml. Fresh platelets were used in cell adhesion assays within 30 minutes of preparation.
Neutrophils were prepared by the method of English and Anderson (J. Immunol. Method, 5: 249-252 (1974)). The neutrophil preparations were greater than 95% pure by light microscopy. Monocytes were prepared by washing the mono-nuclear leukocyte fraction twice with human serum-5 mM EDTA and incubating the cells in RPMI 1640--10% fetal calf serum in sterile […] dishes for 2 hours at 37° C. The dishes were washed three times with PBS at 37° C. to remove nonadherent cells. PBS at 0° C. was added, and the cells were incubated at 4° C. for 1 hour. Adherent cells were gently detached with a rubber policeman, washed in PBS, and resuspended in RPMI 1640--1% fetal calf serum. Lymphocytes were obtained by washing the nonadherent cells with PBS and resuspending these cells in RPMI 1640--1% fetal calf serum. The purity of these preparations was established to be greater than 90% by light microscopy using Wright esterase and nonspecific esterase stains.
Twenty microliters of platelet suspension (2×10^8 /ml) was mixed with 20 μl of cell suspension (2×10^6 /ml) and incubated for 20 minutes at 22° C. in a microfuge tube. An aliquot of the cell suspension was then in a Neubauer chamber and evaluated by light microscropy using an Olympus model BH-2 microscope. Three samples from each assay were evaluated by counting 200 cells and scoring the percentage of cells with two or more adherent platelets (Jungi et al., Blood 67: 629-636 (1986)). Antibody inhibition studies were performed by preincubating cells (20 μl; 3×10^6 /ml) with 20 μl of antibody solution for 20 minutes at 22° C. Subsequently, 20 μl of platelet suspension was added, and the mixture was incubated for 20 minutes at 22° C. Samples were analyzed as above.
To identify the PADGEM recognition site on leukocytes that mediates the binding of activated platelets, monoclonal antibodies directed at various antigens on the surface of monocytes and neutrophils were tested for their ability to inhibit the interaction of these cells with activated platelets, using the phase-contrast cell adhesion assay described in Example 2 (FIG. 1 and FIG. 2). The antibodies were raised against various leukocytes and myeloid cell lines and are directed at leukocyte antigens. […] The percentage of cells displaying two or more adherent platelets was determined as described in Example 2.

[4] = test system: binding of HL60 cells to COS/PADGEM cells; assay: COS cell-PADGEM adhesion assay with labelled HL60 cells; assay type: cell-based, human; settings: for inhibition of binding of radiolabeled HL60 cells to COS/PADGEM cells: 111In activity, FIG. 7; for inhibition of binding of fluorescently labeled HL60 cells to COS/PADGEM cells: scored morphologically in a blind assay
Method: COS cells (1×10^5) were transfected with 40 μg of the resulting PADGEM expression vector by calcium phosphate precipitation. Coverslips (12×12 mm) were added to each culture. After 48 hours of growth in DMEM--10% fetal calf serum, the COS cells were confluent.
HL60 cells (1×10^7), maintained in culture, were washed and resuspended in 0.5 ml of serum-free RPMI 1640. The cells were labeled with 270 μCi of ^111 In oxine (Callow et al., Arch. Surg., 117: 1447-1455 (1982)) and 10 μg of bis-carboxyethyl-carboxyfluorescein (Kolber et al., J. Immunol. Meth., 108: 255-264 (1988)) by incubation at 37° C. for 30 minutes. After washing with RPMI 1640--1% bovine serum albumin, the cells (1×10^6) were incubated with the coverslips containing confluent COS cell transfectants, in the presence or absence of LNF isomers, for 20 minutes at 37° C. The coverslips were washed with RPMI 1640, and duplicate coverslips were assayed for ^111 In activity. Alternatively, samples were evaluated for HL60 cell adherence by fluorescence and phase-contrast microscopy using a Zeiss Axioscope microscope in a blind assay. Inhibition of the binding of COS/PADGEM cells to U937 cells by the antibody 80H5 was performed in experiments identical to the procedure described above.
The results of a COS cell-PADGEM adhesion assay, in which the binding of ^111 In and bis-carboxyethyl-carboxyfluorescein-lableled HL60 cells to COS/PADGEM cells was monitored by assaying ^111 In activity (Example 2), are shown in FIG. 7. […] The inhibitory effect of LNF II was more apparent when the LNF to PADGEM ratio was high. […] It is possible that minor contamination of the LNF II preparation with LNF III can account for the inhibitory activity observed.
The inhibitory effects of LNF I, II, and III on the interaction of HL60 cells and COS/PADGEM was also studied morphologically in a blind assay. In these experiments, the binding of fluorescently labeled HL60 cells to COS/PADGEM cells was scored (Example 2).

[5] = test system: PADGEM; settings: literature reports; cited from earlier work

## CC(=O)NC1C(O)CC(OC2C(O)C(CO)OC(OC3C(CO)OC(O)C(O)C3OC3OC(C)C(O)C(O)C3O)C2O)(C(=O)O)OC1C(O)C(O)CO (centres unmarked) [3'-sialyl-3-fucosyllactose, NeuAcα2-3Galβ1-4[Fucα1-3]Glc]
[1]; 0.25 mM
  inhibition of PADGEM-mediated binding of HL60 cells to CHO-PADGEM transfectants: none of the four sugars tested appreciably inhibited
[2]
  inhibition at 250 µM: 50 to 60%

## CC(=O)NC1C(O)CC(OC2C(O)C(CO)OC(OC3C(CO)OC(O)C(O)C3O)C2O)(C(=O)O)OC1C(O)C(O)CO (centres unmarked) [3'-sialyllactose, NeuAcα2-3Galβ1-4Glc]
[1]; 0.5 mM
  inhibition of PADGEM-mediated binding of HL60 cells to CHO-PADGEM transfectants: none of the four sugars tested appreciably inhibited
[2]
  inhibition at 500 µM: ≤ 10%

## C[C@@H]1O[C@@H](O[C@H]2[C@H](O[C@@H]3O[C@H](CO)[C@H](O)[C@H](O)[C@H]3O)[C@@H](CO)OC(O)[C@@H]2O)[C@@H](O)[C@H](O)[C@@H]1O (some centres unmarked) [3-fucosyllactose, Galβ1-4[Fucα1-3]Glc]
[1]; 0.25 mM
  inhibition of PADGEM-mediated binding of HL60 cells to CHO-PADGEM transfectants: none of the four sugars tested appreciably inhibited
[2]
  inhibition at 250 µM: ≤ 10%

## CC(=O)NC1C(O)CC(OCC2OC(OC3C(CO)OC(O)C(O)C3O)C(O)C(O)C2O)(C(=O)O)OC1C(O)C(O)CO (centres unmarked) [6'-sialyllactose, NeuAcα2-6Galβ1-4Glc]
[1]; 0.5 mM
  inhibition of PADGEM-mediated binding of HL60 cells to CHO-PADGEM transfectants: none of the four sugars tested appreciably inhibited
[2]
  inhibition at 500 µM: ≤ 10%

## CC(=O)N[C@H]1[C@H](O[C@H]2[C@@H](O)[C@@H](CO)O[C@@H](O[C@H]3[C@H](O)[C@@H](O)C(O)O[C@@H]3CO)[C@@H]2O)O[C@H](CO)[C@@H](O)[C@@H]1O[C@@H]1O[C@H](CO)[C@H](O)[C@H](O)[C@H]1O[C@@H]1O[C@@H](C)[C@@H](O)[C@@H](O)[C@@H]1O (some centres unmarked) [LNF I, Fucα1-2Galβ1-3GlcNAcβ1-3Galβ1-4Glc]
[3]
  inhibitory activity on adherence of activated platelets to neutrophils: neither LNF I (open squares) nor LNF II (closed circles) had inhibitory activity
[4]
  inhibition of binding of radiolabeled HL60 cells to COS/PADGEM cells: did not inhibit
  inhibition of binding of fluorescently labeled HL60 cells to COS/PADGEM cells: no inhibitory activity

## CC(=O)N[C@H]1[C@H](O[C@H]2[C@@H](O)[C@@H](CO)O[C@@H](O[C@H]3[C@H](O)[C@@H](O)C(O)O[C@@H]3CO)[C@@H]2O)O[C@H](CO)[C@@H](O[C@@H]2O[C@@H](C)[C@@H](O)[C@@H](O)[C@@H]2O)[C@@H]1O[C@@H]1O[C@H](CO)[C@H](O)[C@H](O)[C@H]1O (some centres unmarked) [LNF II, Galβ1-3(Fucα1-4)GlcNAcβ1-3Galβ1-4Glc]
[3]
  inhibitory activity on adherence of activated platelets to neutrophils: neither LNF I (open squares) nor LNF II (closed circles) had inhibitory activity
[4]
  inhibition of binding of radiolabeled HL60 cells to COS/PADGEM cells: only a small inhibitory effect
  inhibition of binding of fluorescently labeled HL60 cells to COS/PADGEM cells: no inhibitory activity

## fucoidin
[5]
  inhibition of PADGEM-mediated binding of activated platelets to leukocytes: inhibited

## heparin
[5]
  inhibition of PADGEM-mediated binding of activated platelets to leukocytes: inhibited

B1: purified PADGEM: purified platelet activation dependent granule-external membrane protein (protein, UniProt P16109 42-830, looked up)
P-selectin: WTYHYSTKAYSWNISRKYCQNRYTDLVAIQNKNEIDYLNKVLPYYSSYYWIGIRKNNKTWTWVGTKKALTNEAENWADNEPNNKRNNEDCVEIYIKSPSAPGKWNDEHCLKKKHALCYTASCQDMSCSKQGECLETIGNYTCSCYPGFYGPECEYVRECGELELPQHVLMNCSHPLGNFSFNSQCSFHCTDGYQVNGPSKLECLASGIWTNKPPQCLAAQCPPLKIPERGNMTCLHSAKAFQHQSSCSFSCEEGFALVGPEVVQCTASGVWTAPAPVCKAVQCQHLEAPSEGTMDCVHPLTAFAYGSSCKFECQPGYRVRGLDMLRCIDSGHWSAPLPTCEAISCEPLESPVHGSMDCSPSLRAFQYDTNCSFRCAEGFMLRGADIVRCDNLGQWTAPAPVCQALQCQDLPVPNEARVNCSHPFGAFRYQSVCSFTCNEGLLLVGASVLQCLATGNWNSVPPECQAIPCTPLLSPQNGTMTCVQPLGSSSYKSTCQFICDEGYSLSGPERLDCTRSGRWTDSPPMCEAIKCPELFAPEQGSLDCSDTRGEFNVGSTCHFSCDNGFKLEGPNNVECTTSGRWSATPPTCKGIASLPTPGVQCPALTTPGQGTMYCRHHPGTFGFNTTCYFGCNAGFTLIGDSTLSCRPSGQWTAVTPACRAVKCSELHVNKPIAMNCSNLWGNFSYGSICSFHCLEGQLLNGSAQTACQENGHWSTTVPTCQAGPLTIQEALTYFGGAVASTIGLIMGGTLLALLRKRFRQKDDGKCPLNPHSHLGTYGVFTNAAFDPSP
[5]
  inhibition of PADGEM-mediated binding of activated platelets to leukocytes: inhibited
